Test results published in paper PMC6576746, “Rational discovery of dual-indication multi-target PDE/Kinase inhibitor for precision anti-cancer therapy using structural systems pharmacology” (PLoS Computational Biology, 2019).

Experiments:
Assay in all cases: cells
Design in all cases: species or system panel of human cancer cell lines; Eurofins OncoPanel proliferation; nuclei count by high-content fluorescence imaging, 10-point dose response
BT20 = settings: Homo sapiens, BT-20, 72 h, cell count, 3 days
Description: (§1) OncoPanel cancer cell proliferation assay was performed by Eurofins Panlabs, Inc. (Missouri, USA). Cancer cells were grown in RPMI 1640, 10% FBS, 2 mM L-alanyl-L-glutamine, 1 mM Na pyruvate, or a special medium. Cells were seeded into 384-well plates and incubated in a humidified atmosphere of 5% CO2 at 37°C. Compounds were added the day following cell seeding. At the same time, a time zero untreated cell plate was generated. After a 3-day incubation period, cells were fixed and stained to allow fluorescence imaging of nuclei. Levosimendan was serially diluted in half-log steps from 100 μM and assayed over 10 concentrations with a maximum assay concentration of 0.1% DMSO. Automated fluorescence microscopy was carried out using a Molecular Devices ImageXpress Micro XL high-content imager, and images were collected with a 4X objective. 16-bit TIFF images were acquired and analyzed with MetaXpress 5.1.0.41 software. Cell count EC50 is the test concentration at the curve inflection point (parameter C), or half the effective response. IC50 is the test compound concentration at 50% of the maximum possible response. GI50 is the concentration needed to reduce the observed growth by half (midway between the relative cell count at the curve maximum and at the time of compound addition). Activity area is an estimate of the integrated area above the response curve. Activity area values range from 0–10, where a value of zero indicates no inhibition of proliferation at all concentrations, and a value of 10 indicates complete inhibition of proliferation at all concentrations.

CML-T1 = settings: CML-T1, 72 h, cell count, 3 days
Description: as §1

EB-3 = settings: Homo sapiens, EB-3, 72 h, cell count, 3 days
Description: as §1

GA-10 = settings: Homo sapiens, GA-10, 72 h, cell count, 3 days
Description: as §1

HepG2 = settings: Homo sapiens, HepG2, 72 h, cell count, 3 days
Description: as §1

Hs 729 = settings: 72 h, cell count, 3 days
Description: as §1

KG-1 = settings: Homo sapiens, KG-1, 72 h, cell count, 3 days
Description: as §1

LS-174T = settings: Homo sapiens, LS174T, 72 h, cell count, 3 days
Description: as §1

MV-4-11 = settings: Homo sapiens, MV4-11, 72 h, cell count, 3 days
Description: as §1

RD = settings: Homo sapiens, RD, 72 h, cell count, 3 days
Description: as §1

SK-PN-DW = settings: 72 h, cell count, 3 days
Description: as §1

SNU-C2B = settings: Homo sapiens, SNU-C2B, 72 h, cell count, 3 days
Description: as §1

SW872 = settings: Homo sapiens, SW872, 72 h, cell count, 3 days
Description: as §1

VA-ES-BJ = settings: 72 h, cell count, 3 days
Description: as §1

[1] = 50% of maximum possible response

With `C[C@@H]1CC(=O)NN=C1c1ccc(NN=C(C#N)C#N)cc1` [levosimendan] the IC50 (BT20; [1]) was over 100 µM, the GI50 (BT20; corrected for time zero) was 64.2 µM and the EC50 (BT20; curve inflection point) was over 100 µM. The IC50 (CML-T1; [1]) was 15.7 µM, the GI50 (CML-T1; corrected for time zero) was 12.5 µM and the EC50 (CML-T1; curve inflection point) was 15.7 µM. It also gave an IC50 (EB-3; [1]) of 30 µM, a GI50 (EB-3; corrected for time zero) of 23.6 µM and an EC50 (EB-3; curve inflection point) of 30 µM. The IC50 (GA-10; [1]) was 10.2 µM, the GI50 (GA-10; corrected for time zero) was 9.28 µM and the EC50 (GA-10; curve inflection point) was 10.2 µM. The IC50 (HepG2; [1]) was 42.1 µM, the GI50 (HepG2; corrected for time zero) was 36.7 µM and the EC50 (HepG2; curve inflection point) was 42.1 µM. The IC50 (Hs 729; [1]) was over 100 µM, the GI50 (Hs 729; corrected for time zero) was 79.3 µM and the EC50 (Hs 729; curve inflection point) was over 100 µM. The IC50 (KG-1; [1]) was 21.7 µM, the GI50 (KG-1; corrected for time zero) was 13.5 µM and the EC50 (KG-1; curve inflection point) was 19.2 µM. It also gave an IC50 (LS-174T; [1]) of over 100 µM, a GI50 (LS-174T; corrected for time zero) of over 100 µM and an EC50 (LS-174T; curve inflection point) of over 100 µM. It also gave an IC50 (MV-4-11; [1]) of 13.1 µM, a GI50 (MV-4-11; corrected for time zero) of 9.2 µM and an EC50 (MV-4-11; curve inflection point) of 12.6 µM. For the same compound, the IC50 (RD; [1]) was 20.6 µM, the GI50 (RD; corrected for time zero) was 15.7 µM and the EC50 (RD; curve inflection point) was 20.6 µM. It also gave an IC50 (SK-PN-DW; [1]) of 57.4 µM, a GI50 (SK-PN-DW; corrected for time zero) of 43.3 µM and an EC50 (SK-PN-DW; curve inflection point) of 57.4 µM. The IC50 (SNU-C2B; [1]) was 55.2 µM, the GI50 (SNU-C2B; corrected for time zero) was 31.1 µM and the EC50 (SNU-C2B; curve inflection point) was 45.4 µM. The IC50 (SW872; [1]) was 35.3 µM, the GI50 (SW872; corrected for time zero) was 28.9 µM and the EC50 (SW872; curve inflection point) was 35.3 µM. The IC50 (VA-ES-BJ; [1]) was 51.7 µM, the GI50 (VA-ES-BJ; corrected for time zero) was 42.4 µM and the EC50 (VA-ES-BJ; curve inflection point) was 51.7 µM.
